Experimental data from patent publication US11000033B2, “Ketone or oxime compound, and herbicide” (NISSAN CHEMICAL CORPORATION, priority 2014, dated 2021).

What was measured:
Format in all cases: in vivo
transplanted rice plant = test: Test Example 1: effect on crop, application before weed generation in submerged conditions (symbol a); conditions: application herbicide amount 320 g/ha
Method in brief: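 Rice at 2.5 leaf stage transplanted into submerged soil (4 cm depth) sown with three weed species; herbicide applied before weed emergence.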

[1] = test system: Echinochloa crus-galli var. crus-galli; test: Test Example 3: herbicidal effect by foliage application, Wagner pot (symbol H); conditions: application herbicide amount 320 g/ha
Method in brief: (§1)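 Plants sown in submerged alluvial soil (water depth 0.1–0.5 cm) in a 25–30 °C greenhouse and grown 14 days. An emulsion of the compound diluted in water to a set herbicide amount was sprayed uniformly on foliage. Effect on each plant scored 3 weeks after application.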

Leptochloa chinensis = test: Test Example 3: herbicidal effect by foliage application, Wagner pot (symbol D); conditions: application herbicide amount 320 g/ha
Method in brief: as §1

[2] = test system: directly sowed rice plant; test: Test Example 3: effect on crop by foliage application, Wagner pot (symbol b); conditions: application herbicide amount 320 g/ha
Method in brief: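 Wagner pot (1/10000 are), alluvial soil, submerged 0.1–0.5 cm; sown E. crus-galli var. crus-galli, L. chinensis, C. difformis, rice; greenhouse 25–30 °C.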

Digitaria ciliaris = test: Test Example 4: herbicidal effect by soil treatment (symbol F); conditions: application herbicide amount 320 g/ha
Method in brief: (§2)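 Seeds were sown in sterilized diluvial soil, covered with about 1.5 cm of soil, and the soil surface was sprayed with a water-diluted emulsion of the compound at a predetermined rate. Plants grew in a greenhouse at 25° C. to 30° C.; effects were scored visually 3 weeks after application.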

Setaria viridis [3] = test: Test Example 4: herbicidal effect by soil treatment (symbol G); conditions: application herbicide amount 320 g/ha
Method in brief: as §2

Lolium multiflorum Lam. = test: Test Example 4: herbicidal effect by soil treatment (symbol K); conditions: application herbicide amount 320 g/ha
Method in brief: as §2

Apera spica-venti [4] = test: Test Example 4: herbicidal effect by soil treatment (symbol L); conditions: application herbicide amount 320 g/ha
Method in brief: as §2

Abutilon theophrasti [5] = test: Test Example 4: herbicidal effect by soil treatment (symbol M); conditions: application herbicide amount 320 g/ha
Method in brief: as §2

Amaranthus retroflexus = test: Test Example 4: herbicidal effect by soil treatment (symbol N); conditions: application herbicide amount 320 g/ha
Method in brief: as §2

Chenopodium album = test: Test Example 4: herbicidal effect by soil treatment (symbol O); conditions: application herbicide amount 320 g/ha
Method in brief: as §2

Stellaria media [6] = test: Test Example 4: herbicidal effect by soil treatment (symbol P); conditions: application herbicide amount 320 g/ha
Method in brief: as §2

Veronica persica = test: Test Example 4: herbicidal effect by soil treatment (symbol R); conditions: application herbicide amount 320 g/ha
Method in brief: as §2

Setaria viridis [7] = test: Test Example 5: herbicidal effect by foliage application, plastic box (symbol G); conditions: 320 g/ha, 3 weeks after application
Method in brief: (§3)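 Post-emergence spray; diluvial soil (sterilized), ~1.5 cm seed cover; greenhouse 25–30° C; 14-day-old plants; water-diluted emulsion at predetermined dose; visual score at 3 wk post-treatment.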

[8] = test system: Echinochloa crus-galli var. crus-galli; test: Test Example 5: herbicidal effect by foliage application, plastic box (symbol H); conditions: 320 g/ha, 3 weeks after application
Method in brief: as §3

Avena fatua = test: Test Example 5: herbicidal effect by foliage application, plastic box (symbol I); conditions: 320 g/ha, 3 weeks after application
Method in brief: as §3

Apera spica-venti [9] = test: Test Example 5: herbicidal effect by foliage application, plastic box (symbol L); conditions: 320 g/ha, 3 weeks after application
Method in brief: as §3

Stellaria media [10] = test: Test Example 5: herbicidal effect by foliage application, plastic box (symbol P); conditions: 320 g/ha, 3 weeks after application
Method in brief: as §3

rice plant = test: Test Example 5: effect on crop by foliage application, plastic box (symbol b); conditions: 320 g/ha, 3 weeks after application
Method in brief: (§4)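 Crop and weed seeds sown in spots in sterilized diluvial soil in plastic boxes and covered with about 1.5 cm soil. Plants raised in a greenhouse at 25° C. to 30° C. for foliar application.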

beet = test: Test Example 5: effect on crop by foliage application, plastic box (symbol f); conditions: 320 g/ha, 3 weeks after application
Method in brief: as §4

rapeseed = test: Test Example 5: effect on crop by foliage application, plastic box (symbol g); conditions: 320 g/ha, 3 weeks after application
Method in brief: as §4

Abutilon theophrasti [11] = test: Test Example 5: herbicidal effect by foliage application, plastic box (symbol M); conditions: 320 g/ha, 3 weeks after application
Method in brief: as §3

SMILES	Effect grade on crop, a: transplanted rice plant (transplanted rice plant)	herbicidal effect on H (Echinochloa crus-galli var. crus-galli), grade 0-5 [1]	herbicidal effect on D (Leptochloa chinensis), grade 0-5 (Leptochloa chinensis)	effect on crop b (directly sowed rice plant), grade 0-5 [2]	F: Digitaria ciliaris, herbicidal effect grade (Digitaria ciliaris)	G: Setaria viridis, herbicidal effect grade (Setaria viridis [3])	K: Lolium multiflorum Lam., herbicidal effect grade (Lolium multiflorum Lam.)	L: Apera spica-venti, herbicidal effect grade (Apera spica-venti [4])	M: Abutilon theophrasti, herbicidal effect grade (Abutilon theophrasti [5])	N: Amaranthus retroflexus, herbicidal effect grade (Amaranthus retroflexus)	O: Chenopodium album, herbicidal effect grade (Chenopodium album)	P: Stellaria media, herbicidal effect grade (Stellaria media [6])	R: Veronica persica, herbicidal effect grade (Veronica persica)	G: Setaria viridis, herbicidal effect (criteria of Test Example 1) (Setaria viridis [7])	H: Echinochloa crus-galli var. crus-galli, herbicidal effect (criteria of Test Example 1) [8]	I: Avena fatua, herbicidal effect (criteria of Test Example 1) (Avena fatua)	L: Apera spica-venti, herbicidal effect (criteria of Test Example 1) (Apera spica-venti [9])	P: Stellaria media, herbicidal effect (criteria of Test Example 1) (Stellaria media [10])	f: beet, effect on crop (criteria of Test Example 1) (beet)	g: rapeseed, effect on crop (criteria of Test Example 1) (rapeseed)	other results
CON=C(C)CC1CC(O)=C(c2c(C)cc(-c3ccc(F)cc3)cc2C)C1=O (mixture of isomers) [6-058]	5 (Herbicidal ratio of 90% or more (almost completely withered))	5 (Herbicidal ratio of 90% or more (almost completely withered))	5 (Herbicidal ratio of 90% or more (almost completely withered))	5 (Herbicidal ratio of 90% or more (almost completely withered))	5 (Herbicidal ratio of 90% or more (almost completely withered))	5 (Herbicidal ratio of 90% or more (almost completely withered))	5 (Herbicidal ratio of 90% or more (almost completely withered))	5 (Herbicidal ratio of 90% or more (almost completely withered))	5 (Herbicidal ratio of 90% or more (almost completely withered))	5 (Herbicidal ratio of 90% or more (almost completely withered))	5 (Herbicidal ratio of 90% or more (almost completely withered))	5 (Herbicidal ratio of 90% or more (almost completely withered))	5 (Herbicidal ratio of 90% or more (almost completely withered))	5 (Herbicidal ratio of 90% or more (almost completely withered))	5 (Herbicidal ratio of 90% or more (almost completely withered))	5 (Herbicidal ratio of 90% or more (almost completely withered))	5 (Herbicidal ratio of 90% or more (almost completely withered))	5 (Herbicidal ratio of 90% or more (almost completely withered))	5 (Herbicidal ratio of 90% or more (almost completely withered))	5 (Herbicidal ratio of 90% or more (almost completely withered))	b: directly sowed rice plant, effect on crop (criteria of Test Example 1) (rice plant): 5 (Herbicidal ratio of 90% or more (almost completely withered))
CON=C(C)CC1CC(OC(=O)N2CCOCC2)=C(c2c(C)cc(-c3ccc(Cl)cc3)cc2OC)C1=O (stereo not drawn) [6-078, 2-(4′-chloro-3-methoxy-5-methyl-[1,1′-biphenyl]-4-yl)-4-{2-(methoxyimino)propyl}-3-oxocyclopent-1-ene-1-yl morpholine-4-carboxylate]	5 (Herbicidal ratio of 90% or more (almost completely withered))	5 (Herbicidal ratio of 90% or more (almost completely withered))	5 (Herbicidal ratio of 90% or more (almost completely withered))	5 (Herbicidal ratio of 90% or more (almost completely withered))	5 (Herbicidal ratio of 90% or more (almost completely withered))	5 (Herbicidal ratio of 90% or more (almost completely withered))	0 (Herbicidal ratio of 5% or lower (almost no effect))	3 (Herbicidal ratio of 40% or higher and lower than 70%)	1 (Herbicidal ratio of 5% or higher and lower than 20%)	0 (Herbicidal ratio of 5% or lower (almost no effect))	0 (Herbicidal ratio of 5% or lower (almost no effect))	0 (Herbicidal ratio of 5% or lower (almost no effect))	0 (Herbicidal ratio of 5% or lower (almost no effect))	5 (Herbicidal ratio of 90% or more (almost completely withered))	5 (Herbicidal ratio of 90% or more (almost completely withered))	5 (Herbicidal ratio of 90% or more (almost completely withered))	5 (Herbicidal ratio of 90% or more (almost completely withered))	3 (Herbicidal ratio of 40% or higher and lower than 70%)	0 (Herbicidal ratio of 5% or lower (almost no effect))	4 (Herbicidal ratio of 70% or higher and lower than 90%)	M: Abutilon theophrasti, herbicidal effect (criteria of Test Example 1) (Abutilon theophrasti [11]): 4 (Herbicidal ratio of 70% or higher and lower than 90%)
CON=C(C)CC1CC(OC(=O)COc2ccccc2)=C(c2c(C)cc(-c3ccc(Cl)cc3Cl)cc2C)C1=O (stereo not drawn) [6-092]	0 (Herbicidal ratio of 5% or lower (almost no effect))	5 (Herbicidal ratio of 90% or more (almost completely withered))	5 (Herbicidal ratio of 90% or more (almost completely withered))	5 (Herbicidal ratio of 90% or more (almost completely withered))	–	–	–	–	–	–	–	–	–	5 (Herbicidal ratio of 90% or more (almost completely withered))	4 (Herbicidal ratio of 70% or higher and lower than 90%)	5 (Herbicidal ratio of 90% or more (almost completely withered))	3 (Herbicidal ratio of 40% or higher and lower than 70%)	3 (Herbicidal ratio of 40% or higher and lower than 70%)	0 (Herbicidal ratio of 5% or lower (almost no effect))	4 (Herbicidal ratio of 70% or higher and lower than 90%)	Herbicidal effect grade, F: Digitaria ciliaris (Digitaria ciliaris): 5 (Herbicidal ratio of 90% or more (almost completely withered)); Herbicidal effect grade, G: Setaria viridis (Setaria viridis [3]): 5 (Herbicidal ratio of 90% or more (almost completely withered)); Herbicidal effect grade, K: Lolium multiflorum Lam. (Lolium multiflorum Lam.): 5 (Herbicidal ratio of 90% or more (almost completely withered)); Herbicidal effect grade, M: Abutilon theophrasti (Abutilon theophrasti [5]): 0 (Herbicidal ratio of 5% or lower (almost no effect)); Herbicidal effect grade, N: Amaranthus retroflexus (Amaranthus retroflexus): 0 (Herbicidal ratio of 5% or lower (almost no effect)); Herbicidal effect grade, O: Chenopodium album (Chenopodium album): 0 (Herbicidal ratio of 5% or lower (almost no effect)); Herbicidal effect grade, P: Stellaria media (Stellaria media [6]): 0 (Herbicidal ratio of 5% or lower (almost no effect)); Herbicidal effect grade, R: Veronica persica (Veronica persica): 0 (Herbicidal ratio of 5% or lower (almost no effect)); M: Abutilon theophrasti, herbicidal effect (criteria of Test Example 1) (Abutilon theophrasti [11]): 0 (Herbicidal ratio of 5% or lower (almost no effect)); b: directly sowed rice plant, effect on crop (criteria of Test Example 1) (rice plant): 4 (Herbicidal ratio of 70% or higher and lower than 90%)
